Reference: publication PMC10747462, “A Hydrolase Produced by Rhodococcus erythropolis HQ Is Responsible for the Detoxification of Zearalenone” (Toxins, 2023)

Tested on: T1, ZenR
T1 construct: gene PXH69_30770
Conditions: read-out: Km,app; optimal conditions (55 °C, pH 8.0-9.0); 10-300 μM ZEN; no metal needed

T1 sequence (A0AAW6LW22 entry or part of it): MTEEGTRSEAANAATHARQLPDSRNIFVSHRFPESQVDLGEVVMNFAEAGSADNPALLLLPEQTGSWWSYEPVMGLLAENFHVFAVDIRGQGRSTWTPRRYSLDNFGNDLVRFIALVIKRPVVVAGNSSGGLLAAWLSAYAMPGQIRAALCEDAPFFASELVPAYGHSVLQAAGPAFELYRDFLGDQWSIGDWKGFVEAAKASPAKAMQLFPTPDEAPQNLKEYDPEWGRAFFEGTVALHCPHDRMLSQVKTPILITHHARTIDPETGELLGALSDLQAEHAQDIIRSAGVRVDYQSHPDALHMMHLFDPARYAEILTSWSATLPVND

Q: `C[C@H]1CCCC(=O)CCC/C=C/c2cc(O)cc(O)c2C(=O)O1` [Zearalenone] was tested. Which Km did it give?
A: 21.14 ± 0.16 µM
